In PMC3849192, “A Simple Method for Assessing Free Brain/Free Plasma Ratios Using an In Vitro Model of the Blood Brain Barrier” (PLoS ONE, 2013):
Like-named read-outs stand apart in the source and are kept apart here.

Experiments:
[1] = Fraction unbound brain (fu,br), brain homogenate equilibrium dialysis
Method: The degree of brain binding was assessed by equilibrium dialysis. Brain homogenate (10%) was spiked with test compound at 1 µM in triplicate. […] The plate was then placed in a shaker/incubator to equilibrate for 18 hrs at 37°C. […] After the addition of 50 µl of buffer to the brain homogenate samples, 150 µl of acetonitrile was added to each sample. Finally, 50 µl of water was added to all buffer and brain homogenate samples. The plates were centrifuged and the supernatant analyzed by LC-MS/MS.

[2] = Fraction unbound brain (fu,br), brain slice method
Method: Rats (male Sprague-Dawley) were decapitated under isoflurane anesthesia and the brains were removed carefully and immersed in ice-cold oxygenated physiological buffer at pH7.4. A 6 mm coronal section was cut with a razor and mounted with cyanoacrylate glue onto the tray of the microslicer (DTK-Zero 1 Microslicer, Dosak) after which six to eight 300 µm coronal slices from striatal areas were prepared. […] The compounds were dissolved at 1 µM in the buffer and the solution was incubated with the slice for 5 h.
After 5 h, the brain slices were weighed and homogenized in 9 volumes (w/v) of ECF buffer with a sonicator (SONICS VCX 500 and VCX 130). The slice homogenates in ECF buffer were stored at −20°C prior to analysis. The concentrations of the test compound in the brain slice homogenate and in the ECF buffer was determined by LC-MS/MS.
The unbound volume of distribution Vu,brain, or free fraction fu,brain was calculated according to the following equations: [drawing 1] [drawing 2] where Cslice, CECF and V0 are amount of drug in the slice, the drug concentration in the ECF (representing the drug concentration in the brain ECF, i.e. the free concentration), and the water adhesion of the brain slice. V0 has been estimated using ^14C -inulin in a separate experiment in which brain slices were incubated for 1, 2, and 4 min. V0 was obtained from brain slice uptake – inulin time profile (apparent zero-time intercept).

[3] = tested on: in vitro BBB model (co-culture of bovine brain capillary endothelial cells and rat glial cells); experiment: In vitro BBB co-culture model, Cu,br/Cu,pl ratio
Method: Figure 1 Schematic diagram of the experimental protocol. After 12 days of coculture in cell culture medium, both compartments of the in vitro BBB model consisting of a coculture of brain capillary endothlial cells and rat primary glial cells were filled with Hepes-buffered Ringer’s solution and the compounds dissolved at 2 µM were added in the luminal compartment (i.e donor). The presence of glial cells in the abluminal compartment was used to reproduce the non specific binding to brain tisssue within the brain prenchyma in vivo. After 1 hour, aliquots were taken from both compartments. In vitro Cu,br/Cu,pl at 1 h were calculated by dividing the concentration in the abluminal compartment (∼Cu,br) by the concentration in the luminal compartment (∼Cu,pl) at 1 h. The experimental data at 1 h were computed using the blue-norna steady-state calculator to generate the in vitro steady-state Cu,br/Cu,pl.
One hour after the addition of compounds dissolved at 2 µM in the luminal (i.e upper) compartment, aliquots were taken from both compartments previously filled with Hepes-buffered Ringer’s solution at the beginning of the experiment. […] The concentrations in both compartments of the in vitro assay after 1 h were computed using […] blue-norna.com to generate the in vitro steady-state Cu,br/Cu,pl.
The method of Dehouck et al. was used with minor modifications (Fig. 1). Bovine brain endothelial cells isolated from capillary fragments were cocultured with primary mixed glial cells from newborn Sprague–Dawley rats. The glial cells were isolated according to the method of Booher and Sensenbrenner and cultured for 3 weeks, plated on the bottom of cell culture clusters containing six wells each. The endothelial cells were seeded onto collagen-coated polycarbonate cell culture inserts (4.7 cm^2) (Corning Incorp. NY, USA), which were placed in the wells containing glial cells. The medium used for the coculture was Dulbecco’s modified Eagle’s medium supplemented with 10% calf serum, 10% horse serum, 2 mmol/L glutamine, 50 mg/L gentamicin and 1 µg/L basic fibroblast growth factor (Sigma). The medium was changed every second day. Experiments were usually initiated after 12 days of co-culture.
To monitor the integrity of the endothelial cell monolayer, the marker molecule [^14C] sucrose was added to the solution at a concentration of 0.05 µCi/ml. At the start of the transport experiments, buffered Ringer’s solution (pH = 7.4) was added to wells with glial cells. Inserts with brain endothelial cells were placed in these wells and drug solutions at 2 µM were added to the donor compartment. The plates were incubated for 1 h in a polymix shaker at 37°C with a low shaking velocity. Aliquots were taken from the donor compartment in the beginning and at the end of the experiments. The receiver compartments were sampled at the end of the experiments.
The amount of radiotracer in the abluminal compartment was measured in a liquid scintillation analyser (Packard Instrument Company, Meriden, USA). […] The concentrations of the test compound in all samples were analysed by MS/MS.
The mean free brain/plasma ratios were calculated from three individual experiments. One hour ratios were calculated by dividing the drug concentration in the receiver compartment by the free drug concentration in the donor compartment after 1 h. The experimental data at one hour (i.e concentration in both compartment at the beginning of the experiment and after 1 h) were computed using the blue-norna® steady-state calculator (www.blue-norna.com) to predict the in vivo steady-state Cu,br/Cu,pl ratios. For further details on this calculation method see file S1.
The in vivo steady-state Cu,br/Cu,pl were predicted from the in vitro experimental data collected after one hour according to the following equation: […]
Cdonor, t and Creceiver, t are the concentration of drug in the donor and receiver chambers at time t.

[4] = brain homogenate (10%), 1 µM, equilibrium dialysis 18 hrs at 37°C
[5] = rat brain slices 300 µm, 1 µM, 5 h incubation
[6] = 2 µM in luminal compartment, abluminal/luminal concentration at 1 h
[7] = steady-state ratio computed from 1 h data with the blue-norna steady-state calculator

NCC(CC(=O)O)c1ccc(Cl)cc1 (stereo not drawn) [Baclofen]
fubrain (homog.) Mean [1, 4]: 0.5000 | fubrain (slice) Mean [2, 5]: 0.5800 | In vitro Cu,br/Cu,pl Mean 1 h [3, 6]: 0.05 | In vitro Cu,br/Cu,pl Mean steady-state [3, 7]: 0.06

CNCCC=C1c2ccccc2CCc2ccccc21 [Nortriptyline]
fubrain (homog.) Mean [1, 4]: 0.0046 | fubrain (slice) Mean [2, 5]: 0.0045 | In vitro Cu,br/Cu,pl Mean 1 h [3, 6]: 0.08 | In vitro Cu,br/Cu,pl Mean steady-state [3, 7]: 0.81

Nc1c2c(nc3ccccc13)CCCC2 [Tacrine]
fubrain (homog.) Mean ([1]; 18 h, 1 µM): 0.1200 | fubrain (slice) Mean ([2]; male, Sprague-Dawley, rat, 5 h, 1 µM): 0.1200 | In vitro Cu,br/Cu,pl Mean steady-state ([3]; bovine / rat, 2 µM, pH 7.4): 0.58 | In vitro Cu,br/Cu,pl Mean 1 h ([3]; bovine / rat, 1 h, 2 µM, pH 7.4): 0.23

Cc1ccc(-c2nc3ccc(C)cn3c2CC(=O)N(C)C)cc1 [Zolpidem]
fubrain (homog.) Mean [1]: 0.2000 | fubrain (slice) Mean ([2]; male, Sprague-Dawley, rat): 0.3500 | In vitro Cu,br/Cu,pl Mean 1 h [3, 6]: 0.25 | In vitro Cu,br/Cu,pl Mean steady-state [3, 7]: 0.49

O=C1NC(=O)C(c2ccccc2)(c2ccccc2)N1 [Phenytoin]
fubrain (homog.) Mean [1, 4]: 0.0800 | fubrain (slice) Mean [2, 5]: 0.1200 | In vitro Cu,br/Cu,pl Mean 1 h [3, 6]: 0.22 | In vitro Cu,br/Cu,pl Mean steady-state [3, 7]: 0.44

CC(C)(C)NC(=O)[C@@H]1CN(Cc2cccnc2)CCN1C[C@@H](O)C[C@@H](Cc1ccccc1)C(=O)N[C@H]1c2ccccc2C[C@H]1O [Indinavir]
In vitro Cu,br/Cu,pl Mean 1 h [3, 6]: 0.04 | In vitro Cu,br/Cu,pl Mean steady-state [3, 7]: 0.10

Cn1c(=O)c2c(ncn2C)n(C)c1=O [Caffeine]
fubrain (homog.) Mean [1, 4]: 0.5000 | fubrain (slice) Mean [2, 5]: 0.7100 | In vitro Cu,br/Cu,pl Mean 1 h [3, 6]: 0.34 | In vitro Cu,br/Cu,pl Mean steady-state [3, 7]: 0.55

CCCC(C)(COC(N)=O)COC(=O)NC(C)C (stereo not drawn) [Carisoprodol]
fubrain (homog.) Mean [1, 4]: 0.2020 | fubrain (slice) Mean [2, 5]: 0.5600 | In vitro Cu,br/Cu,pl Mean 1 h [3, 6]: 0.31 | In vitro Cu,br/Cu,pl Mean steady-state [3, 7]: 0.61

O=C(CCCN1CCC(O)(c2ccc(Cl)cc2)CC1)c1ccc(F)cc1 [Haloperidol]
fubrain (homog.) Mean [1, 4]: 0.0071 | fubrain (slice) Mean [2, 5]: 0.0140 | In vitro Cu,br/Cu,pl Mean 1 h [3, 6]: 0.09 | In vitro Cu,br/Cu,pl Mean steady-state [3, 7]: 0.70

OCCOCCN1CCN(C(c2ccccc2)c2ccc(Cl)cc2)CC1 (stereo not drawn) [Hydroxyzine]
fubrain (homog.) Mean [1, 4]: 0.0100 | fubrain (slice) Mean [2, 5]: 0.0170 | In vitro Cu,br/Cu,pl Mean 1 h [3, 6]: 0.05 | In vitro Cu,br/Cu,pl Mean steady-state [3, 7]: 0.47

NCC1(CC(=O)O)CCCCC1 [Gabapentin]
fubrain (homog.) Mean [1, 4]: 0.7820 | fubrain (slice) Mean [2, 5]: 0.2400 | In vitro Cu,br/Cu,pl Mean 1 h [3, 6]: 0.06 | In vitro Cu,br/Cu,pl Mean steady-state [3, 7]: 0.14

CN(C)CCC=C1c2ccccc2CCc2ccccc21 [Amitriptyline]
fubrain (homog.) Mean [1, 4]: 0.0090 | fubrain (slice) Mean [2, 5]: 0.0060 | In vitro Cu,br/Cu,pl Mean 1 h [3, 6]: 0.07 | In vitro Cu,br/Cu,pl Mean steady-state [3, 7]: 0.59

CN(C)CCCN1c2ccccc2Sc2ccc(Cl)cc21 [Chlorpromazine]
fubrain (homog.) Mean [1, 4]: 0.0008 | fubrain (slice) Mean [2, 5]: 0.0032 | In vitro Cu,br/Cu,pl Mean 1 h [3, 6]: 0.06 | In vitro Cu,br/Cu,pl Mean steady-state [3, 7]: 0.69

CNS(=O)(=O)Cc1ccc2[nH]cc(CCN(C)C)c2c1 [Sumatriptan]
fubrain (homog.) Mean [1, 4]: 0.4000 | fubrain (slice) Mean [2, 5]: 0.6100 | In vitro Cu,br/Cu,pl Mean 1 h [3, 6]: 0.05 | In vitro Cu,br/Cu,pl Mean steady-state [3, 7]: 0.05

CSc1ccc2c(c1)N(CCC1CCCCN1C)c1ccccc1S2 (stereo not drawn) [Thioridazine]
fubrain (homog.) Mean [1, 4]: 0.0010 | fubrain (slice) Mean [2, 5]: 0.0017 | In vitro Cu,br/Cu,pl Mean 1 h [3, 6]: 0.08 | In vitro Cu,br/Cu,pl Mean steady-state [3, 7]: 0.68

CCN1CCCC1CNC(=O)c1cc(S(N)(=O)=O)ccc1OC (stereo not drawn) [Sulpiride]
fubrain (homog.) Mean [1, 4]: 0.6000 | fubrain (slice) Mean [2, 5]: 0.4400 | In vitro Cu,br/Cu,pl Mean 1 h [3, 6]: 0.05 | In vitro Cu,br/Cu,pl Mean steady-state [3, 7]: 0.09

CN1CCN(CCCN2c3ccccc3Sc3ccc(C(F)(F)F)cc32)CC1 [Trifluoperazine]
fubrain (homog.) Mean [1, 4]: 0.0007 | fubrain (slice) Mean [2, 5]: 0.0007 | In vitro Cu,br/Cu,pl Mean 1 h [3, 6]: 0.09 | In vitro Cu,br/Cu,pl Mean steady-state [3, 7]: 0.71

CNCCC(Oc1ccc(C(F)(F)F)cc1)c1ccccc1 (stereo not drawn) [Fluoxetine]
fubrain (homog.) Mean [1, 4]: 0.0023 | fubrain (slice) Mean [2, 5]: 0.0027 | In vitro Cu,br/Cu,pl Mean 1 h [3, 6]: 0.10 | In vitro Cu,br/Cu,pl Mean steady-state [3, 7]: 0.96

Nc1nnc(-c2cccc(Cl)c2Cl)c(N)n1 [Lamotrigine]
fubrain (homog.) Mean [1, 4]: 0.2000 | fubrain (slice) Mean [2, 5]: 0.3600 | In vitro Cu,br/Cu,pl Mean 1 h [3, 6]: 0.27 | In vitro Cu,br/Cu,pl Mean steady-state [3, 7]: 0.43

NC(=O)N1c2ccccc2C=Cc2ccccc21 [Carbamazepine]
fubrain (homog.) Mean [1, 4]: 0.1160 | fubrain (slice) Mean [2, 5]: 0.2000 | In vitro Cu,br/Cu,pl Mean 1 h [3, 6]: 0.25 | In vitro Cu,br/Cu,pl Mean steady-state [3, 7]: 0.31
